Data taken from PubChem BioAssay AID256 (DTP/NCI, 2004).
Where “and” joins values, the source holds several entries; their conditions need not be identical. Equal values may be shown once. Toxic doses and inconclusive results are not listed.

System: CD2F1 mice, L1210 leukemia ip, survival T/C
Experiment: NCI In Vivo Anticancer Drug Screen. Data for tumor model L1210 Leukemia (intraperitoneal) in CD2F1 (CDF1) mice
Conditions: endpoint: mean survival time, higher = longer survival
Outline: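 Ratio T/C, where T is the treated-group value and C the vehicle-dosed control value, from mice implanted with a transplantable tumor.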

[1] = dose: 100.0 mg/kg/injection, schedule: Q04DX003 (ip), vehicle: saline with Tween-80
[2] = dose: 200.0 mg/kg/injection, schedule: Q04DX003 (ip), vehicle: saline with Tween-80
[3] = dose: 400.0 mg/kg/injection, schedule: Q04DX003 (ip), vehicle: saline with Tween-80

SMILES: CCOc1ccc2nc([NH-])sc2c1.CCOc1ccc2nc([NH-])sc2c1.[Cl][Pt+2][Cl]
- T/C (dose: 3.13 mg/kg/injection, schedule: Q04DX003 (ip), vehicle: distilled water + Tween-80): 96 % of control
- T/C (dose: 6.25 mg/kg/injection, schedule: Q04DX003 (ip), vehicle: distilled water + Tween-80): 96 % of control
- T/C (dose: 12.5 mg/kg/injection, schedule: Q04DX003 (ip), vehicle: distilled water + Tween-80): 96 % of control
- T/C (dose: 25.0 mg/kg/injection, schedule: Q04DX003 (ip), vehicle: distilled water + Tween-80): 95 % of control
- T/C (dose: 50.0 mg/kg/injection, schedule: Q04DX003 (ip), vehicle: distilled water + Tween-80): 98 % of control
- T/C (dose: 100.0 mg/kg/injection, schedule: Q04DX003 (ip), vehicle: distilled water + Tween-80): 101 % of control
- T/C (dose: 200.0 mg/kg/injection, schedule: Q04DX003 (ip), vehicle: distilled water + Tween-80): 96 % of control

SMILES: Cc1cccc(N=Cc2ccccc2O)c1
- T/C (dose: 100.0 mg/kg/injection, schedule: Q01DX001 (ip), vehicle: saline with Tween-80): 88 % of control
- T/C (dose: 200.0 mg/kg/injection, schedule: Q01DX001 (ip), vehicle: saline with Tween-80): 97 % of control

SMILES: C=CCOc1ccc(C=O)cc1
- T/C (dose: 100.0 mg/kg/injection, schedule: Q01DX001 (ip), vehicle: saline): 102 % of control
- T/C (dose: 200.0 mg/kg/injection, schedule: Q01DX001 (ip), vehicle: saline): 102 % of control
- T/C (dose: 400.0 mg/kg/injection, schedule: Q01DX001 (ip), vehicle: saline): 97 % of control

SMILES: O=C(CCBr)N1CCN(C(=O)CCBr)CC1
- T/C (dose: 4.0 mg/kg/injection, schedule: Q03HX016 (ip), vehicle: saline): 100 % of control
- T/C (dose: 4.0 mg/kg/injection, schedule: Q03HX024 (ip), vehicle: saline): 100 % of control
- T/C (dose: 8.0 mg/kg/injection, schedule: Q03HX016 (ip), vehicle: saline): 101 % of control
- T/C (dose: 8.0 mg/kg/injection, schedule: Q03HX016 (oral), vehicle: saline): 93 % of control
- T/C (dose: 8.0 mg/kg/injection, schedule: Q03HX024 (ip), vehicle: saline): 110 % of control
- T/C (dose: 8.0 mg/kg/injection, schedule: Q03HX024 (oral), vehicle: saline): 119 % of control
- T/C (dose: 16.0 mg/kg/injection, schedule: Q03HX008 (ip), vehicle: saline): 120 % of control
- T/C (dose: 16.0 mg/kg/injection, schedule: Q03HX008 (oral), vehicle: saline): 124 % of control
- T/C (dose: 16.0 mg/kg/injection, schedule: Q03HX016 (ip), vehicle: saline): 117 % of control
- T/C (dose: 16.0 mg/kg/injection, schedule: Q03HX016 (oral), vehicle: saline): 100 % of control
- T/C (dose: 16.0 mg/kg/injection, schedule: Q03HX024 (ip), vehicle: saline): 172 % of control
- T/C (dose: 16.0 mg/kg/injection, schedule: Q03HX024 (oral), vehicle: saline): 123 % of control
- T/C (dose: 25.0 mg/kg/injection, schedule: Q01DX009 (ip), vehicle: saline): 124 % of control
- T/C (dose: 25.0 mg/kg/injection, schedule: Q03DX003 (ip), vehicle: saline): 115 % of control
- T/C (dose: 25.0 mg/kg/injection, schedule: Q04DX003 (ip), vehicle: saline): 108 % of control
- T/C (dose: 32.0 mg/kg/injection, schedule: Q01DX009 (ip), vehicle: saline): 161 % of control
- T/C (dose: 32.0 mg/kg/injection, schedule: Q01DX009 (oral), vehicle: saline): 150 % of control
- T/C (dose: 32.0 mg/kg/injection, schedule: Q03HX008 (ip), vehicle: saline): 160 % of control
- T/C (dose: 32.0 mg/kg/injection, schedule: Q03HX008 (oral), vehicle: saline): 151 % of control
- T/C (dose: 32.0 mg/kg/injection, schedule: Q03HX016 (ip), vehicle: saline): 207 % of control
- T/C (dose: 32.0 mg/kg/injection, schedule: Q03HX016 (oral), vehicle: saline): 162 % of control
- T/C (dose: 32.0 mg/kg/injection, schedule: Q03HX024 (ip), vehicle: saline): 101 % of control
- T/C (dose: 32.0 mg/kg/injection, schedule: Q03HX024 (oral), vehicle: saline): 94 % of control
- T/C (dose: 32.0 mg/kg/injection, schedule: Q04DX003 (ip), vehicle: saline): 118 % of control
- T/C (dose: 32.0 mg/kg/injection, schedule: Q08DX002 (ip), vehicle: saline): 98 % of control
- T/C (dose: 50.0 mg/kg/injection, schedule: Q03DX003 (ip), vehicle: saline): 124 % of control
- T/C (dose: 50.0 mg/kg/injection, schedule: Q04DX003 (ip), vehicle: saline): 123 % of control
- T/C (dose: 64.0 mg/kg/injection, schedule: Q01DX009 (ip), vehicle: saline): 156 % of control
- T/C (dose: 64.0 mg/kg/injection, schedule: Q01DX009 (oral), vehicle: saline): 122 % of control
- T/C (dose: 64.0 mg/kg/injection, schedule: Q04DX003 (ip), vehicle: saline): 162 % of control
- T/C (dose: 64.0 mg/kg/injection, schedule: Q08DX002 (ip), vehicle: saline): 115 % of control
- T/C (dose: 64.0 mg/kg/injection, schedule: Q08DX002 (oral), vehicle: saline): 109 % of control
- T/C (dose: 100.0 mg/kg/injection, schedule: Q01DX007 (ip), vehicle: saline): 120 % of control
- T/C (dose: 100.0 mg/kg/injection, schedule: Q03DX003 (ip), vehicle: saline): 167 % of control
- T/C (dose: 128.0 mg/kg/injection, schedule: Q01DX001 (oral), vehicle: saline): 150 % of control
- T/C (dose: 128.0 mg/kg/injection, schedule: Q01DX009 (oral), vehicle: saline): 105 % of control
- T/C (dose: 128.0 mg/kg/injection, schedule: Q04DX003 (ip), vehicle: saline): 176 % of control
- T/C (dose: 128.0 mg/kg/injection, schedule: Q04DX003 (oral), vehicle: saline): 157 % of control
- T/C (dose: 128.0 mg/kg/injection, schedule: Q08DX002 (ip), vehicle: saline): 167 % of control
- T/C (dose: 256.0 mg/kg/injection, schedule: Q01DX001 (ip), vehicle: saline): 157 % of control
- T/C (dose: 256.0 mg/kg/injection, schedule: Q01DX009 (oral), vehicle: saline): 88 % of control
- T/C (dose: 256.0 mg/kg/injection, schedule: Q08DX002 (ip), vehicle: saline): 194 % of control
- T/C (dose: 256.0 mg/kg/injection, schedule: Q08DX002 (oral), vehicle: saline): 156 % of control
- T/C (dose: 512.0 mg/kg/injection, schedule: Q08DX002 (oral), vehicle: saline): 156 % of control

SMILES: C[C@]12CCC(=O)C=C1CC[C@@H]1[C@@H]2[C@@H](O)C[C@@]2(C)[C@H]1CC[C@]2(O)C(=O)COP(=O)(O)OCC1OC(n2ccc(N)nc2=O)C(O)C1O (stereo partly specified)
- T/C (dose: 5.0 mg/kg/injection, schedule: Q01DX005 (ip), vehicle: other): 104 % of control
- T/C (dose: 10.0 mg/kg/injection, schedule: Q01DX005 (ip), vehicle: other): 110 % of control
- T/C (dose: 15.0 mg/kg/injection, schedule: Q01DX005 (ip), vehicle: other): 115 % of control
- T/C (dose: 120.0 mg/kg/injection, schedule: Q01DX005 (ip), vehicle: other): 150 % of control
- T/C (dose: 240.0 mg/kg/injection, schedule: Q01DX005 (ip), vehicle: other): 162 % of control

SMILES: OC(Cc1nc2ccccc2[nH]1)c1nc2ccccc2[nH]1 (stereo unspecified)
- T/C (dose: 50.0 mg/kg/injection, schedule: Q01DX009 (ip), vehicle: Klucel (hydroxypropylcellulose) (HPC)): 104 % of control
- T/C (dose: 100.0 mg/kg/injection, schedule: Q01DX009 (ip), vehicle: Klucel (hydroxypropylcellulose) (HPC)): 97 % of control
- T/C (dose: 200.0 mg/kg/injection, schedule: Q01DX009 (ip), vehicle: Klucel (hydroxypropylcellulose) (HPC)): 101 % of control

SMILES: Nc1ccc(-c2nc(=S)c3cn[nH]c3[nH]2)cc1
- T/C (dose: 12.5 mg/kg/injection, schedule: Q01DX005 (ip), vehicle: other): 92 % of control
- T/C (dose: 25.0 mg/kg/injection, schedule: Q01DX005 (ip), vehicle: other): 94 % of control
- T/C (dose: 50.0 mg/kg/injection, schedule: Q01DX005 (ip), vehicle: other): 91 % of control
- T/C (dose: 100.0 mg/kg/injection, schedule: Q01DX005 (ip), vehicle: other): 91 % of control
- T/C (dose: 200.0 mg/kg/injection, schedule: Q01DX005 (ip), vehicle: other): 95 % of control

SMILES: Cc1cccc(NC(=O)NCCBr)c1
- T/C [1]: 100 % of control
- T/C [2]: 88 % of control
- T/C [3]: 92 % of control

SMILES: S=C(S)c1[nH]c(=S)[nH]c(=S)c1Cl
- T/C [1]: 96 % of control
- T/C [2]: 101 % of control
- T/C [3]: 87 % of control

SMILES: COc1cc(C)c(Cl)[n+]([O-])n1
- T/C (dose: 3.13 mg/kg/injection, schedule: Q04DX002 (ip), vehicle: saline with Tween-80): 104 % of control
- T/C (dose: 6.25 mg/kg/injection, schedule: Q04DX002 (ip), vehicle: saline with Tween-80): 104 % of control
- T/C (dose: 12.5 mg/kg/injection, schedule: Q04DX002 (ip), vehicle: saline with Tween-80): 97 % of control and 104 % of control

SMILES: CC(=O)OCC(C)CCC(=O)C(C)C1C(=O)CC2C3CC=C4CC(OC(C)=O)CCC4(C)C3CCC21C (stereo unspecified)
- T/C (dose: 100.0 mg/kg/injection, schedule: Q01DX009 (ip), vehicle: saline with Tween-80): 100 % of control
- T/C (dose: 200.0 mg/kg/injection, schedule: Q01DX009 (ip), vehicle: saline with Tween-80): 97 % of control
- T/C (dose: 400.0 mg/kg/injection, schedule: Q01DX009 (ip), vehicle: saline with Tween-80): 91 % of control
